One experiment deals with T1, METTL3/14 (Homo sapiens, UniProt Q86U44).
T1 construct: The enzyme used was full-length his-tagged METTL3; His; made in house
The experiment can be described thus: METTL3/14 methyltransferase assay (METTL3_14 RFMS, RapidFire mass spectrometry).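 Note: recombinant His-tagged METTL3 with FLAG-tagged METTL14 from baculovirus, SAH product quantified by mass spectrometry against isotope-labelled internal standards, 60 min at room temperature, scaled between no-RNA and DMSO-only wells.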 As to conditions: read-out: METTL3_14 RFMS IC50. The experiment is classed as biochemical.

In a further experiment the test system is MOLM-13 cells. The experiment is described as follows: MOLM13 CTG - analysis of cell proliferation (Cell Titre Glo). The experiment is classed as cell-based. As to conditions: Homo sapiens, geometric mean, read-out: CTG MOLM13 cells IC50 GEOMEAN.
A further experiment relates to Caov-3 cells. The experiment can be described thus: Caov3 CTG assay - proliferation assay. The experiment is classed as cell-based. The conditions noted are these: Homo sapiens, 120 hours treatment, 30 μM top concentration, CellTiter-Glo, geometric mean, read-out: CTG Caov3 cells IC50 GEOMEAN. On the technique in general: Cellular ATP, detected with luciferase, serves as a proxy for viable cell number.

Setting [1] is: 5 nM METTL3/14, 0.2 μM RNA substrate, 0.5 μM SAM, lower limit of the assay IC50=5 nM, Compounds 266-351.

Like-named read-outs stand apart in the source and are kept apart here.

As usually defined, the IC50 is the concentration that inhibits the measured activity by half.

T1 sequence (Q86U44 whole entry): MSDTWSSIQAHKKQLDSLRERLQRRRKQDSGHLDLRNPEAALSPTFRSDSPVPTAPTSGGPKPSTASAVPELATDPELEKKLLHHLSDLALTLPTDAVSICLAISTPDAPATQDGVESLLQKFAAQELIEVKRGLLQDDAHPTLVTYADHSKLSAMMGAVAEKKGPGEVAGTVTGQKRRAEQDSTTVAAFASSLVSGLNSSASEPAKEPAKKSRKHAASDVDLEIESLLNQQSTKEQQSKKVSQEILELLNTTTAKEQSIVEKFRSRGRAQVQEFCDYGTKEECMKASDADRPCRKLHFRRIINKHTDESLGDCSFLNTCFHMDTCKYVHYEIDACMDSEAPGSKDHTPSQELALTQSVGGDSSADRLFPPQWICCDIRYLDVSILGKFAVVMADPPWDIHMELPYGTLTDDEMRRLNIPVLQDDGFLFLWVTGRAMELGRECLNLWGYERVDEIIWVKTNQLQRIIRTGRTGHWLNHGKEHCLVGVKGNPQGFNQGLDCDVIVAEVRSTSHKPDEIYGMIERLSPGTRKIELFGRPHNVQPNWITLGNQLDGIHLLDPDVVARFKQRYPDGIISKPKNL
T1 sequence (Q9HCE5 whole entry partner): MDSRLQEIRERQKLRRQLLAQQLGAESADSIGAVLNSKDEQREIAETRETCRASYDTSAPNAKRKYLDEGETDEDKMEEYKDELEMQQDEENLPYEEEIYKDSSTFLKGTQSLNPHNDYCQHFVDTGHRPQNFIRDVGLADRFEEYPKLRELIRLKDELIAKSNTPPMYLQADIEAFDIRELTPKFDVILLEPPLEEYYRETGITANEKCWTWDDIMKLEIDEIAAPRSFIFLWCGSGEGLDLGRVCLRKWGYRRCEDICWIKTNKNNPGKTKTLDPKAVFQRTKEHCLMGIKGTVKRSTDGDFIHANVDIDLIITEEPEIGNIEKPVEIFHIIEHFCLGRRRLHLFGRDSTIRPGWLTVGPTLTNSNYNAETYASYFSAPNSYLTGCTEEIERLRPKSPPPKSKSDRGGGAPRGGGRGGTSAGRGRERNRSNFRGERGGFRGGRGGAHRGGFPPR
Method for Caov-3 cells: Upon treatment, Coav-3 cells were incubated for 10 min at RT with the CellTiter-Glo reagent (G7571, Promega). Measurement of the luminescence signal was performed on a microplate reader (Ensight, PerkinElmer).
Method for METTL3/14: The enzyme used was full-length his-tagged METTL3 co-expressed with full length FLAG-tagged METTL14 in a baculovirus expression system. […] After termination, plates were sealed, centrifuged and stored at 4° C. until analysis. […] Mass Spectrometry Analysis RNA methyltransferase activity was measured label free using the RapidFireTM mass spectrometry (RF/MS) platform. Stopped and stable assay plates were analyzed on the Agilent RF300 integrated autosampler/solid-phase extraction (SPE) system coupled to an ABSciex 4000 mass spectrometer for the generation of the product S-adenosyl homocysteine (SAH) and normalized to the ratio of signal of the two internal product standards, respectively. Solvent A was water containing 0.1% (v/v) TCA. Solvent B was acetonitrile/0.1% ammonium acetate (8:2, v/v). More specifically, plates were centrifuged at 4350 rpm for 10 min, samples were aspirated under vacuum for 600 ms, then loaded onto a C18 solid-phase extraction cartridge and washed for 3 s with solvent A at a flow rate of 1.5 mL/min. Retained product and internal standards were eluted with solvent B at a flow rate of 1 mL/min for 3 s and finally the cartridge was reequilibrated with solvent A for 500 ms.
Method for MOLM-13 cells: MOLM-13 or MOLM-14 cells were plated, in suspension, in 24 well tissue culture plates at final concentration of 200,000/ml, with or without 50 ng/ml IFNγ. […] Cells were incubated for 4 days at 37° C. at which point 600 μl of cell suspension was removed for Mass spectrometry analysis of m6A. 600 μl of fresh media containing the appropriate concentration of METTL3 inhibitor/IFNγ was added to remaining cell suspensions. Cells where then cultured for a further 7 days, cell suspension was sampled for analysis of proliferation and Cell surface markers periodically.
At regular time points (4, 5, 6 &7) days cells were mixed to maintain a homogenous cell suspension. 25 μl of this cell suspension was removed and added to a white 384 well plate, 25 μl of Cell Titre Glo reagent (Promega) was added, and incubated for 10 mins at room temperature before measurement of luminescence intensity, as per the manufacturers instructions.

For the molecule `O=C(NCc1cn2cc(CNCC34CC(F)(C3)C4)ccc2n1)c1cc(=O)n2ccccc2n1` [Compound 276, N-[[6-[[(3-fluoro-1-bicyclo[1.1.1]pentanyl)methylamino]methyl]imidazo[1,2-a]pyridin-2-yl]methyl]-4-oxo-pyrido[1,2-a]pyrimidine-2-carboxamide], the IC50 on METTL3/14 (setting [1]) amounted to 6.1 nM; with MOLM-13 cells it was 657 nM; in the experiment with Caov-3 cells, 248 nM.
For `O=C(NCc1cn2cc(CNCC3CCC3)ccc2n1)c1cc(=O)n2ccccc2n1` [Example 212, N-[[6-[(cyclobutylmethylamino)methyl]imidazo[1,2-a]pyridin-2-yl]methyl]-4-oxo-pyrido[1,2-a]pyrimidine-2-carboxamide], the IC50 at METTL3/14 (5 nM METTL3/14, 0.2 μM RNA substrate, 0.5 μM SAM, lower limit of the assay IC50=5 nM, Compounds 63-265) stood at 6.25 nM; in the experiment on MOLM-13 cells, 1820 nM; in the experiment with Caov-3 cells, 320 nM.
On to `COc1cc(-c2cn(Cc3cn4cc(CNCC5(O)CCC5)ccc4n3)nn2)c2cn[nH]c2c1` [Example 269, 1-[[[2-[[4-(6-methoxy-1H-indazol-4-yl)triazol-1-yl]methyl]imidazo[1,2-a]pyridin-6-yl]methylamino]methyl]cyclobutanol], for which the IC50 at METTL3/14 (setting [1]) came out at 8.05 nM; in the experiment on MOLM-13 cells it was 1390 nM; in the experiment on Caov-3 cells it was 692 nM.
On to `OC1(CNCc2ccc3nc(Cn4cc(-c5cc(Br)cc6[nH]ncc56)nn4)cn3c2)CCCCC1` [Example 294, 1-[[[2-[[4-(6-bromo-1H-indazol-4-yl)triazol-1-yl]methyl]imidazo[1,2-a]pyridin-6-yl]methylamino]methyl]cyclohexanol], for which the half-inhibitory concentration (IC50) was determined as 5.8 nM at METTL3/14 (setting [1]) and 998 nM in the experiment on MOLM-13 cells.
In the case of `Brc1cc(-c2cn(Cc3cn4cc(CNCC5CCC5)ccc4n3)nn2)c2cn[nH]c2c1` [Example 296, 1-[2-[[4-(6-bromo-1H-indazol-4-yl)triazol-1-yl]methyl]imidazo[1,2-a]pyridin-6-yl]-N-(cyclobutylmethyl)methanamine], the results for the IC50 at METTL3/14 and in the experiment on MOLM-13 cells were no more than 4.44 nM and 362 nM, respectively.
With `O=C(O)c1cc(-c2cn(Cc3cn4cc(CNCC5CCC5)ccc4n3)nn2)c2cn[nH]c2c1` [Example 297, 4-[1-[[6-[(cyclobutylmethylamino)methyl]imidazo[1,2-a]pyridin-2-yl]methyl]triazol-4-yl]-1H-indazole-6-carboxylic acid], the IC50 on METTL3/14 (setting [1]) was 737 nM; with MOLM-13 cells it was no less than 30000 nM.
Take `NC(=O)c1cc(-c2cn(Cc3cn4cc(CNCC5CCC5)ccc4n3)nn2)c2cn[nH]c2c1` [Example 298, 4-[1-[[6-[(cyclobutylmethylamino)methyl]imidazo[1,2-a]pyridin-2-yl]methyl]triazol-4-yl]-1H-indazole-6-carboxamide]: the figures for the IC50 at METTL3/14 (setting [1]) and in the experiment on MOLM-13 cells were 42.1 nM and no less than 30000 nM, respectively.
For `CN(C)C(=O)c1cc(-c2cn(Cc3cn4cc(CNCC5CCC5)ccc4n3)nn2)c2cn[nH]c2c1` [Example 299, 4-[1-[[6-[(cyclobutylmethylamino)methyl]imidazo[1,2-a]pyridin-2-yl]methyl]triazol-4-yl]-N,N-dimethyl-1H-indazole-6-carboxamide], in that order: 112 nM and no less than 30000 nM.
For `O=C(c1cc(-c2cn(Cc3cn4cc(CNCC5CCC5)ccc4n3)nn2)c2cn[nH]c2c1)N1CCOCC1` [Example 300, [4-[1-[[6-[(cyclobutylmethylamino)methyl]imidazo[1,2-a]pyridin-2-yl]methyl]triazol-4-yl]-1H-indazol-6-yl]-morpholino-methanone], in that order: 511 nM and no less than 30000 nM.
On to `OC1(CNCc2ccc3nc(Cn4cc(-c5cc(Cl)cc6[nH]ncc56)nn4)cn3c2)CCC1` [Example 303, 1-[[[2-[[4-(6-chloro-1H-indazol-4-yl)triazol-1-yl]methyl]imidazo[1,2-a]pyridin-6-yl]methylamino]methyl]cyclobutanol], for which the 50% inhibitory concentration (IC50) at METTL3/14 (setting [1]) was 5.92 nM; in the experiment with MOLM-13 cells, 1440 nM.
For the molecule `Fc1ccc(-c2cn(Cc3cn4cc(CNCC5CCC5)ccc4n3)nn2)c2cn[nH]c12` [Example 305, N-(cyclobutylmethyl)-1-[2-[[4-(7-fluoro-1H-indazol-4-yl)triazol-1-yl]methyl]imidazo[1,2-a]pyridin-6-yl]methanamine], the IC50 was 6.01 nM on METTL3/14 (setting [1]) and 1830 nM with MOLM-13 cells.
For `OC1(CNCc2ccc3nc(Cn4cc(-c5ccc(F)c6[nH]ncc56)nn4)cn3c2)CCCCC1` [Example 306, 1-[[[2-[[4-(7-fluoro-1H-indazol-4-yl)triazol-1-yl]methyl]imidazo[1,2-a]pyridin-6-yl]methylamino]methyl]cyclohexanol], the results for the half-inhibitory concentration (IC50) at METTL3/14 (setting [1]) and in the experiment on MOLM-13 cells were 9.46 nM and 3930 nM, respectively.
Regarding `OC1(CNCc2ccc3nc(Cn4cc(-c5ccc(F)c6[nH]ncc56)nn4)cn3c2)CCC1` [Example 308, 1-[[[2-[[4-(7-fluoro-1H-indazol-4-yl)triazol-1-yl]methyl]imidazo[1,2-a]pyridin-6-yl]methylamino]methyl]cyclobutanol], the IC50 on METTL3/14 (setting [1]) came out at 11.4 nM; in the experiment with MOLM-13 cells, 5610 nM.
For the molecule `c1cc2nc(Cn3cc(-c4cc(N5CCOCC5)cc5[nH]ncc45)nn3)cn2cc1CNCC1CCC1` [Example 311, N-(cyclobutylmethyl)-1-[2-[[4-(6-morpholino-1H-indazol-4-yl)triazol-1-yl]methyl]imidazo[1,2-a]pyridin-6-yl]methanamine], the values for the half-inhibitory concentration (IC50) at METTL3/14 (setting [1]) and in the experiment with MOLM-13 cells were 19 nM and 3680 nM, respectively.
As to `O=C(NCc1cn2cc(C(Cc3ccccc3)NCC3CCC3)ccc2n1)c1cc(=O)n2ccccc2n1` (stereo not shown) [Example 313, N-[[6-[1-(cyclobutylmethylamino)-2-phenyl-ethyl]imidazo[1,2-a]pyridin-2-yl]methyl]-4-oxo-pyrido[1,2-a]pyrimidine-2-carboxamide], the IC50 came out at 37.6 nM at METTL3/14 (setting [1]) and 11300 nM in the experiment on MOLM-13 cells.
For `Clc1ccc(-c2cn(Cc3cn4cc(CNCC5CCC5)ccc4n3)nn2)c2cn[nH]c12` [Example 315, 1-[2-[[4-(7-chloro-1H-indazol-4-yl)triazol-1-yl]methyl]imidazo[1,2-a]pyridin-6-yl]-N-(cyclobutylmethyl)methanamine], in that order: 19.3 nM and 8360 nM.
Take `Fc1cc(-c2cn(Cc3cn4cc(CNCC5CCC5)ccc4n3)nn2)c2cn[nH]c2c1` [Example 318, N-(cyclobutylmethyl)-1-[2-[[4-(6-fluoro-1H-indazol-4-yl)triazol-1-yl]methyl]imidazo[1,2-a]pyridin-6-yl]methanamine]: the figures for the IC50 at METTL3/14 (setting [1]) and in the experiment with MOLM-13 cells were 5.67 nM and 1180 nM, respectively.
Regarding `OC1(CNCc2ccc3nc(Cn4cc(-c5cc(F)cc6[nH]ncc56)nn4)cn3c2)CCC1` [Example 319, 1-[[[2-[[4-(6-fluoro-1H-indazol-4-yl)triazol-1-yl]methyl]imidazo[1,2-a]pyridin-6-yl]methylamino]methyl]cyclobutanol], the half-maximal inhibitory concentration (IC50) on METTL3/14 (setting [1]) amounted to 7.84 nM; with MOLM-13 cells, 4380 nM.
For the molecule `Fc1cc(-c2cn(Cc3cn4cc(CNCC5CCCCC5)ccc4n3)nn2)c2cn[nH]c2c1` [Example 320, N-(cyclohexylmethyl)-1-[2-[[4-(6-fluoro-1H-indazol-4-yl)triazol-1-yl]methyl]imidazo[1,2-a]pyridin-6-yl]methanamine], the half-maximal inhibitory concentration (IC50) is 6.16 nM at METTL3/14 (setting [1]) and 2760 nM in the experiment with MOLM-13 cells.
As to `O=C(NCc1cn2cc(CNCC3CCC3)ccc2n1)c1cccc2[nH]ncc12` [Example 322, N-[[6-[(cyclobutylmethylamino)methyl]imidazo[1,2-a]pyridin-2-yl]methyl]-1H-indazole-4-carboxamide], the half-inhibitory concentration (IC50) was 32.5 nM on METTL3/14 (setting [1]) and 11000 nM in the experiment with MOLM-13 cells.
Consider `c1cc2[nH]ncc2c(-c2cn(Cc3cn4cc(CNCC5CCC5)ccc4n3)nn2)n1` [Example 324, N-(cyclobutylmethyl)-1-[2-[[4-(1H-pyrazolo[4,3-c]pyridin-4-yl)triazol-1-yl]methyl]imidazo[1,2-a]pyridin-6-yl]methanamine], for which the IC50 at METTL3/14 (setting [1]) was found to be 8.86 nM; in the experiment on MOLM-13 cells it was 3280 nM.
On to `c1cc2[nH]ncc2c(-c2cn(Cc3cn4cc(CNCC5CCCCC5)ccc4n3)nn2)n1` [Example 325, N-(cyclohexylmethyl)-1-[2-[[4-(1H-pyrazolo[4,3-c]pyridin-4-yl)triazol-1-yl]methyl]imidazo[1,2-a]pyridin-6-yl]methanamine], for which the 50% inhibitory concentration (IC50) was 14.5 nM at METTL3/14 (setting [1]) and 7500 nM in the experiment on MOLM-13 cells.
`OC1(CNCc2ccc3nc(Cn4cc(-c5nccc6[nH]ncc56)nn4)cn3c2)CCC1` [Example 326, 1-[[[2-[[4-(1H-pyrazolo[4,3-c]pyridin-4-yl)triazol-1-yl]methyl]imidazo[1,2-a]pyridin-6-yl]methylamino]methyl]cyclobutanol]: the half-inhibitory concentration (IC50) was determined as 76.6 nM at METTL3/14 (setting [1]) and 10700 nM in the experiment on MOLM-13 cells.
In the case of `OC1(CNCc2ccc3nc(Cn4cc(-c5cccc6[nH]ncc56)nn4)cn3c2)CCCCC1` [Example 328, 1-[[[2-[[4-(1H-indazol-4-yl)triazol-1-yl]methyl]imidazo[1,2-a]pyridin-6-yl]methylamino]methyl]cyclohexanol], the IC50 at METTL3/14 (setting [1]) worked out at 8.84 nM; in the experiment with MOLM-13 cells it was 3250 nM.
On the same counts, the results for `N#CCC(NCC1CCC1)c1ccc2nc(CNC(=O)c3cc(=O)n4ccccc4n3)cn2c1` (stereo not shown) [Example 330, N-[[6-[2-cyano-1-(cyclobutylmethylamino)ethyl]imidazo[1,2-a]pyridin-2-yl]methyl]-4-oxo-pyrido[1,2-a]pyrimidine-2-carboxamide] are 202 nM and no less than 30000 nM.
Regarding `O=c1cc(-c2cn(Cc3cn4cc(CNCC5CCC5)ccc4n3)nn2)nc2ccccn12` [Example 342, 2-[1-[[6-[(cyclobutylmethylamino)methyl]imidazo[1,2-a]pyridin-2-yl]methyl]triazol-4-yl]pyrido[1,2-a]pyrimidin-4-one], the concentration for half-maximal inhibition (IC50) at METTL3/14 (setting [1]) was found to be 18.4 nM; with MOLM-13 cells, 6710 nM.
